Measured values from PMC6540285, “Evaluation of Protein Kinase Inhibitors with PLK4 Cross-Over Potential in a Pre-Clinical Model of Cancer” (International Journal of Molecular Sciences, 2019).

How the values were obtained:
[1] = molecular target: ABL2 (Arg) (Homo sapiens, UniProt P42684); experiment: SelectScreen kinase profiling, ZLYTE; assay type: biochemical
[2] = molecular target: ALK C1156Y (Homo sapiens, UniProt Q9UM73, C1156Y); experiment: SelectScreen kinase profiling, LanthaScreen binding
[3] = molecular target: ALK L1196M (Homo sapiens, UniProt Q9UM73, L1196M); experiment: as above
[4] = molecular target: AURKC (Aurora C) (Homo sapiens, UniProt Q9UQB9); experiment: SelectScreen kinase profiling, ZLYTE; assay type: biochemical
[5] = molecular target: CSK (Homo sapiens, UniProt P41240); experiment: SelectScreen kinase profiling, ZLYTE; assay type: biochemical
[6] = molecular target: CSNK1A1L (Homo sapiens, UniProt Q8N752); experiment: SelectScreen kinase profiling, ZLYTE; assay type: biochemical
[7] = molecular target: DMPK (Homo sapiens, UniProt Q09013); experiment: SelectScreen kinase profiling, LanthaScreen binding
[8] = molecular target: FGFR3 G697C (Homo sapiens, UniProt P22607, G697C); experiment: as above
[9] = molecular target: FYN (Homo sapiens, UniProt P06241); experiment: SelectScreen kinase profiling, ZLYTE; assay type: biochemical
[10] = molecular target: KIT T670E (Homo sapiens, UniProt P10721, T670E); experiment: SelectScreen kinase profiling, LanthaScreen binding
[11] = molecular target: KIT V560G (Homo sapiens, UniProt P10721, V560G); experiment: SelectScreen kinase profiling, ZLYTE; assay type: biochemical
[12] = molecular target: LATS2 (Homo sapiens, UniProt Q9NRM7); experiment: SelectScreen kinase profiling, LanthaScreen binding; details: LATS2, 10 µM
[13] = molecular target: MAPK12 (p38 gamma) (Homo sapiens, UniProt P53778); experiment: SelectScreen kinase profiling, ZLYTE; assay type: biochemical
[14] = molecular target: MAPKAPK5 (PRAK) (Homo sapiens, UniProt Q8IW41); experiment: SelectScreen kinase profiling, ZLYTE; assay type: biochemical
[15] = molecular target: MASTL (Homo sapiens, UniProt Q96GX5); experiment: SelectScreen kinase profiling, LanthaScreen binding
[16] = molecular target: MERTK (cMER) A708S (Homo sapiens, UniProt Q12866, A708S); experiment: as above
[17] = molecular target: MYLK (MLCK) (Homo sapiens, UniProt Q15746); experiment: as above
[18] = molecular target: MYO3B (MYO3 beta) (Homo sapiens, UniProt Q8WXR4); experiment: as above
[19] = molecular target: NEK4 (Homo sapiens, UniProt P51957); experiment: SelectScreen kinase profiling, ZLYTE; assay type: biochemical; details: NEK4, 10 µM
[20] = molecular target: PDGFRB (PDGFR beta) (Homo sapiens, UniProt P09619); experiment: SelectScreen kinase profiling, ZLYTE; assay type: biochemical
[21] = molecular target: PIK3CG (p110 gamma) (Homo sapiens, UniProt P48736); experiment: SelectScreen kinase profiling, Adapta; assay type: biochemical
[22] = molecular target: PLK1 (Homo sapiens, UniProt P53350); experiment: SelectScreen kinase profiling, ZLYTE; assay type: biochemical; details: PLK1, 10 µM
[23] = molecular target: T1, PLK4 (Homo sapiens, UniProt O00444); experiment: SelectScreen kinase profiling, LanthaScreen binding; details: PLK4, 10 µM
T1 sequence (O00444 1-970): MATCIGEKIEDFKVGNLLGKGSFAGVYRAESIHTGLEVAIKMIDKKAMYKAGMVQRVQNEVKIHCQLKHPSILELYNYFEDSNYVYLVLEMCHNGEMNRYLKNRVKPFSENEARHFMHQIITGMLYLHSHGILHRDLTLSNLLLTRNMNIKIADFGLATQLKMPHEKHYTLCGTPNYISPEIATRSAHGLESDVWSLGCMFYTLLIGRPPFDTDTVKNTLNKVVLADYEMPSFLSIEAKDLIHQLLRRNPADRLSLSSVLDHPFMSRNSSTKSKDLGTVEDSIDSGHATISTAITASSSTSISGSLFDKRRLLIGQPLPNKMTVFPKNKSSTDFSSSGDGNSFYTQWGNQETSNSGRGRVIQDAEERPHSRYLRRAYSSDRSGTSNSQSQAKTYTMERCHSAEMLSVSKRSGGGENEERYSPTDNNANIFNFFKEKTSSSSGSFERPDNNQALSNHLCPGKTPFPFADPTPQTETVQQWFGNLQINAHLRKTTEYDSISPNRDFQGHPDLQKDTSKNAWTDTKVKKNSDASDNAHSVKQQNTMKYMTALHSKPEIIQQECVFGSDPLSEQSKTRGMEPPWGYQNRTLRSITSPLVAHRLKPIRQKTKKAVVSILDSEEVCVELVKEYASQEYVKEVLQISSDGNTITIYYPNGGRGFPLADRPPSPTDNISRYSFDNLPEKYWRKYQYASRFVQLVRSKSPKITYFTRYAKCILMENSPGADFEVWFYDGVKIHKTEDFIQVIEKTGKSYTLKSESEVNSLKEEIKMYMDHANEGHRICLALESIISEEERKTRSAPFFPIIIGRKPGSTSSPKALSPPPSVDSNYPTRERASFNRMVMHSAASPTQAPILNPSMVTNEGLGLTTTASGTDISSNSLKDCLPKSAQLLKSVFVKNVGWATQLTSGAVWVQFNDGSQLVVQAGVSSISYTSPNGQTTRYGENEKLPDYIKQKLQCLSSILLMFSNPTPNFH

[24] = molecular target: PTK2B (FAK2) (Homo sapiens, UniProt Q14289); experiment: SelectScreen kinase profiling, ZLYTE; assay type: biochemical
[25] = molecular target: RAF1 (cRAF) Y340D Y341D (Homo sapiens, UniProt P04049, Y340D/Y341D); experiment: SelectScreen kinase profiling, LanthaScreen binding
[26] = molecular target: RET (Homo sapiens, UniProt P07949); experiment: SelectScreen kinase profiling, ZLYTE; assay type: biochemical
[27] = molecular target: RET V804M (Homo sapiens, UniProt P07949, V804M); experiment: SelectScreen kinase profiling, LanthaScreen binding
[28] = molecular target: SGKL (SGK3) (Homo sapiens, UniProt Q96BR1); experiment: SelectScreen kinase profiling, ZLYTE; assay type: biochemical
[29] = molecular target: SRPK2 (Homo sapiens, UniProt P78362); experiment: SelectScreen kinase profiling, ZLYTE; assay type: biochemical; details: SRPK2, 10 µM

MYO3B (MYO3 beta), sequence (Q8WXR4 whole entry): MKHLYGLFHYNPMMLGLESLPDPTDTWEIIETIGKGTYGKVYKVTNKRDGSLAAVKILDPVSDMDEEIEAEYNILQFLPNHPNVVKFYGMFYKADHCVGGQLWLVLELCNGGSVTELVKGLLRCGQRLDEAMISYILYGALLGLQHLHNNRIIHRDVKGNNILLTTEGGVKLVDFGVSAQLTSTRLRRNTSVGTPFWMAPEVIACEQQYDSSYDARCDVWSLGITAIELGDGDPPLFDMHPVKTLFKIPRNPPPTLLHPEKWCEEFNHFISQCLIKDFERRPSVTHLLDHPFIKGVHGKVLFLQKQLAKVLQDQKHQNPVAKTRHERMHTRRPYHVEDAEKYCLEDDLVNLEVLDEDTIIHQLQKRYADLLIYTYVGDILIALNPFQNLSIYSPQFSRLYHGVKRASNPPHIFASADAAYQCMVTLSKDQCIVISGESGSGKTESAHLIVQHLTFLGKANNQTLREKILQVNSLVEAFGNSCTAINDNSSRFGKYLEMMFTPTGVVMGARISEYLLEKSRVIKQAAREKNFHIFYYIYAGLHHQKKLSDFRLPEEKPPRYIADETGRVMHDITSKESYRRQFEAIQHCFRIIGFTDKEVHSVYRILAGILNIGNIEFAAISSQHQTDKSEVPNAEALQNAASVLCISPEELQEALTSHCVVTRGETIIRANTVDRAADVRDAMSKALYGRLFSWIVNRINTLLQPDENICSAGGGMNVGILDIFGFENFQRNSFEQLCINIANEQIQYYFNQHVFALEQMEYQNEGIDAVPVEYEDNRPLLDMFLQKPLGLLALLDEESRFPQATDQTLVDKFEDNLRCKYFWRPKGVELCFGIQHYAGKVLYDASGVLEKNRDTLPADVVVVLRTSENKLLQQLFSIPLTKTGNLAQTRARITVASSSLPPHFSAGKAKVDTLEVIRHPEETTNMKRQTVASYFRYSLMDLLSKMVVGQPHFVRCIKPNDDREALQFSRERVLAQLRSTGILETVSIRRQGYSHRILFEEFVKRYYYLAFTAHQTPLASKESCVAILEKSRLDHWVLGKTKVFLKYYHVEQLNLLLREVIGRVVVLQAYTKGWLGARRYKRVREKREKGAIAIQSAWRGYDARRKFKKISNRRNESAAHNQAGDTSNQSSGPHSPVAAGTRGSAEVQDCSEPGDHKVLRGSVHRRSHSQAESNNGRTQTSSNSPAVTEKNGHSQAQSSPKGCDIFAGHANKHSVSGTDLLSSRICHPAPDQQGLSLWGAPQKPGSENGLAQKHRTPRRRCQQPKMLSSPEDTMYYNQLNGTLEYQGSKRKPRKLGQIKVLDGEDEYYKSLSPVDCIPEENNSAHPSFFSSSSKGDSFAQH
KIT T670E, sequence (P10721 26-976 T670E): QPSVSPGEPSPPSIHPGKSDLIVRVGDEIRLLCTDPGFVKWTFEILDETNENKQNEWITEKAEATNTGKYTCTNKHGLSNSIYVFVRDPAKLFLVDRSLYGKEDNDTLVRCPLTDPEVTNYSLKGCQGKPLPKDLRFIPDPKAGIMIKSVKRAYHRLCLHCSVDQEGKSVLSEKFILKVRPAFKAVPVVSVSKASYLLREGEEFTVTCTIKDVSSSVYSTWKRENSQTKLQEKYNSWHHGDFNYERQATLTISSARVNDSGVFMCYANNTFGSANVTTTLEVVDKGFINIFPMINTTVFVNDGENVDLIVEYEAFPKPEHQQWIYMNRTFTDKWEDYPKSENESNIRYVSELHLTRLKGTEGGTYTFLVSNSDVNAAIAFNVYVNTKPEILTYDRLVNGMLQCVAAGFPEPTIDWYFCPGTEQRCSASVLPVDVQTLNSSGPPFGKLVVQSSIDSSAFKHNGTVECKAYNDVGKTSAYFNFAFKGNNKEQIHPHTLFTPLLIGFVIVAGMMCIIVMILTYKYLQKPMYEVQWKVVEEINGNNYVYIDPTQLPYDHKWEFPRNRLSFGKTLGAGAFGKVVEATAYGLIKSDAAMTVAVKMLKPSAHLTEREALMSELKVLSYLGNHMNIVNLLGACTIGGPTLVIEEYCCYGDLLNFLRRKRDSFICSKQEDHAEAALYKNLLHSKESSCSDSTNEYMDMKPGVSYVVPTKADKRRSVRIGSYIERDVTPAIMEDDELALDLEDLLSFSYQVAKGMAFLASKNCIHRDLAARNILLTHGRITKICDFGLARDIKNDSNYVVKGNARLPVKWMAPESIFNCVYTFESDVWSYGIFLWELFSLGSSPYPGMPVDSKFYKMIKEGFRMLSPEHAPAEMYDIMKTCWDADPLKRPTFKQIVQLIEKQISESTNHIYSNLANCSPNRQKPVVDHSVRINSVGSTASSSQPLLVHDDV
LATS2, sequence (Q9NRM7 whole entry): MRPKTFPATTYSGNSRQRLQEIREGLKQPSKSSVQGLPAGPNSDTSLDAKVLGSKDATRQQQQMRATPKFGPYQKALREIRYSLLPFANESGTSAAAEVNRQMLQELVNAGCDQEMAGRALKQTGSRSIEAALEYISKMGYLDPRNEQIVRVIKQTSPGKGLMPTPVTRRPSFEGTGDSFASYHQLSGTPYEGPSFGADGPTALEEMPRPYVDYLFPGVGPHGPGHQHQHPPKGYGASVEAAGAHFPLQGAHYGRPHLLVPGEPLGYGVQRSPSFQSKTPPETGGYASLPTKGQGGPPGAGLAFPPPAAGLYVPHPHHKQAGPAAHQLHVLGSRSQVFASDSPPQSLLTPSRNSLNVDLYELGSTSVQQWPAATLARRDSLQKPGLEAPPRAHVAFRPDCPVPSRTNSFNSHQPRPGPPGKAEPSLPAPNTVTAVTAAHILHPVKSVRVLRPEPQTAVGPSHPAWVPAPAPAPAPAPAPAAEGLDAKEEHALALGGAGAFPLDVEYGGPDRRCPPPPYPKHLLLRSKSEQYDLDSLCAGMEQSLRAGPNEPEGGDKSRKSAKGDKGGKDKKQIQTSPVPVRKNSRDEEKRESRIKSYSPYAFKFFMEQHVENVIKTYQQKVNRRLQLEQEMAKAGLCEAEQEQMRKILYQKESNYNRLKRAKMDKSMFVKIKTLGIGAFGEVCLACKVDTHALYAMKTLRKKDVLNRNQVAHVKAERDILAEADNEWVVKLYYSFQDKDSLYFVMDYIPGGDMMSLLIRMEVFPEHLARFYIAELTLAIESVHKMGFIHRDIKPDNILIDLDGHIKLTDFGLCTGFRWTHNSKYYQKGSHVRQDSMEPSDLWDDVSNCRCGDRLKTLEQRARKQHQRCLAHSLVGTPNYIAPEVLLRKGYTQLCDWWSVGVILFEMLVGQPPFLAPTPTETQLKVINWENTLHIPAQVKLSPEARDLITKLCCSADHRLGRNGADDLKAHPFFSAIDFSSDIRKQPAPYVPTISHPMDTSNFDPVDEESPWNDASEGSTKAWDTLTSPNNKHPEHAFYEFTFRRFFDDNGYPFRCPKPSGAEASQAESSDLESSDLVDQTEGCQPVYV
ALK C1156Y, sequence (Q9UM73 19-1620 C1156Y): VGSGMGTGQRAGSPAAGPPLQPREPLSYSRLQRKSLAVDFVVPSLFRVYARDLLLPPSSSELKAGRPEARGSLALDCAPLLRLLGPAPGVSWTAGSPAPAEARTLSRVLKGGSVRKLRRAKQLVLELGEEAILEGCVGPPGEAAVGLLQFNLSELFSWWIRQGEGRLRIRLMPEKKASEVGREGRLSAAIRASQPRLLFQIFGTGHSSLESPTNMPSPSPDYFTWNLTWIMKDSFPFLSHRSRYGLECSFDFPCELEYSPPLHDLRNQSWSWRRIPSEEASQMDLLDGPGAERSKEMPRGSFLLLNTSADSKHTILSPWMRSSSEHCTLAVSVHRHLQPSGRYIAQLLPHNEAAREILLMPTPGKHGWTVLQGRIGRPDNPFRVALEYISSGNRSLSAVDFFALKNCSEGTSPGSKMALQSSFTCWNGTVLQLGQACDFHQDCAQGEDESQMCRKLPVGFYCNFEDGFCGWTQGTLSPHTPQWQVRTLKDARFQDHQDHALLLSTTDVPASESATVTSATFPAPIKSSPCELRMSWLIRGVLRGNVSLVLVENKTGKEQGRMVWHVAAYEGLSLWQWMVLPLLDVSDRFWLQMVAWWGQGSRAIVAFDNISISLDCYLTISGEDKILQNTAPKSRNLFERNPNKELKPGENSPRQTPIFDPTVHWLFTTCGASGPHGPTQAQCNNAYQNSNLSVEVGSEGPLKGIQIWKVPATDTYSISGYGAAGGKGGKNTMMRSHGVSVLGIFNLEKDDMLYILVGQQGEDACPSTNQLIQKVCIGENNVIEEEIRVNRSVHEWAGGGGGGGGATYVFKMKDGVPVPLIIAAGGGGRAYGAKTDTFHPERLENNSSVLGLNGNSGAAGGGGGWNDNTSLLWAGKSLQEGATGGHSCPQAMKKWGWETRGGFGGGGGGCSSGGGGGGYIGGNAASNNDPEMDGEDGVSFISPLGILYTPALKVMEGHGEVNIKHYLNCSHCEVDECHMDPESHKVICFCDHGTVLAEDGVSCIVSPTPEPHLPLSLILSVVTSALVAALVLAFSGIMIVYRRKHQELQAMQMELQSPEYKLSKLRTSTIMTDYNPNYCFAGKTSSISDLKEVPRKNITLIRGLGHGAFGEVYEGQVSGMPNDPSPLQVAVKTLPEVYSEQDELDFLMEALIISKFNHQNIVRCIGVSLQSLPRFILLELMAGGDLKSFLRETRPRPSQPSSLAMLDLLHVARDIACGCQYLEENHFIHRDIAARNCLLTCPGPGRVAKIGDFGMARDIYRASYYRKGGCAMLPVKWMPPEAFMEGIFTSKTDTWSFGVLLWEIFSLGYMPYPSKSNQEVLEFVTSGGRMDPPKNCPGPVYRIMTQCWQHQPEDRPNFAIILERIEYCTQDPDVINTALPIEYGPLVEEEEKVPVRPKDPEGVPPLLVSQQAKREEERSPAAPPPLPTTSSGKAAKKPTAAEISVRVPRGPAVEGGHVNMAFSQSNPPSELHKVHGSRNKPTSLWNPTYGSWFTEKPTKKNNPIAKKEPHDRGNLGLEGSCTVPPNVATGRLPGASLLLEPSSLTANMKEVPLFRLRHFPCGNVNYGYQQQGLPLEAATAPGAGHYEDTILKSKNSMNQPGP
ALK L1196M, sequence (Q9UM73 19-1620 L1196M): as the sequence (Q9UM73 19-1620 C1156Y) above, with Y1138C, L1178M counted along it
KIT V560G, sequence (P10721 26-976 V560G): as the sequence (P10721 26-976 T670E) above, with V535G, E645T counted along it

O=C(c1ccc(/C=C/c2n[nH]c3ccccc23)cc1)N1CCNCC1 [KW-2449]
inhibition at 10 µM [1]: 98%
inhibition at 10 µM [2]: 76%
inhibition at 10 µM [3]: 13%
inhibition at 10 µM [4]: 98%
inhibition at 10 µM [5]: 71%
inhibition at 10 µM [6]: 20%
inhibition at 10 µM [7]: 77%
inhibition at 10 µM [8]: 78%
inhibition at 10 µM [9]: 94%
inhibition at 10 µM [10]: 89%
inhibition at 10 µM [11]: 84%
inhibition at 10 µM [12]: 68%
inhibition at 10 µM [13]: 23%
inhibition at 10 µM [14]: 87%
inhibition at 10 µM [15]: 83%
inhibition at 10 µM [16]: 74%
inhibition at 10 µM [17]: 80%
inhibition at 10 µM [18]: 88%
inhibition at 10 µM [19]: 96%
inhibition at 10 µM [20]: 76%
inhibition at 10 µM [21]: 8%
inhibition at 10 µM [22]: 16%
inhibition at 10 µM [23]: 61%
inhibition at 10 µM [24]: 96%
inhibition at 10 µM [25]: 0%
inhibition at 10 µM [26]: 101%
inhibition at 10 µM [27]: -5%
inhibition at 10 µM [28]: 52%
inhibition at 10 µM [29]: 32%
